By pIC50 is commonly meant −log10 of the IC50, conventionally taken in molar units.

Molecules are shown by their SMILES. pIC50: −log10 of the molar value.

One experiment concerns the target T1, human V2 receptor (Homo sapiens, UniProt P30518).
T1 construct: expressed in transfected cells; host or cells: CHO K1 (Chinese hamster ovary) expressing firefly luciferase under a CRE-responsive promoter
The experiment is described as follows: Cellular in vitro assay for vasopressin receptor activity, V2 receptor cell line (CRE-luciferase). Type of experiment: cell-based. The settings on record: CHO cell line transfected with human V2 receptor; [Arg8]-vasopressin at EC50 concentration; read-out: IC50 hV2. The method, boiled down: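 CHO K1 cells stably expressing human V2 receptor with CRE-driven firefly luciferase, plated the day before. Test compounds at various concentrations added together with [Arg^8]-vasopressin at EC50 concentration, 3 h at 37° C, 5% CO2. Luminescence read after Triton lysis and luciferin addition; IC50 values reported.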

Another experiment concerns the target T2, human V1a receptor (Homo sapiens, UniProt P37288).
T2 construct: expressed in transfected cells; host or cells: CHO K1 (Chinese hamster ovary), also stably transfected with a modified aequorin
In words: Cellular in vitro assay for vasopressin receptor activity, V1a receptor cell line (aequorin luminescence). It is filed as cell-based. The conditions noted are these: for pIC50: CHO cell line transfected with human V1a receptor, [Arg8]-vasopressin at EC50 concentration, read-out: IC50 hV1a; for ratio IC50 hV2/hV1a: selectivity ratio of the IC50 values hV2/hV1a. The method, boiled down:
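Recombinant CHO K1 cells stably expressing human V1a receptor and aequorin, loaded with coelenterazine, were exposed to test compounds for 10 minutes before [Arg^8]-vasopressin at EC50 concentration. Calcium-triggered luminescence was measured immediately, giving IC50 values.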

T1 sequence (P30518 whole entry): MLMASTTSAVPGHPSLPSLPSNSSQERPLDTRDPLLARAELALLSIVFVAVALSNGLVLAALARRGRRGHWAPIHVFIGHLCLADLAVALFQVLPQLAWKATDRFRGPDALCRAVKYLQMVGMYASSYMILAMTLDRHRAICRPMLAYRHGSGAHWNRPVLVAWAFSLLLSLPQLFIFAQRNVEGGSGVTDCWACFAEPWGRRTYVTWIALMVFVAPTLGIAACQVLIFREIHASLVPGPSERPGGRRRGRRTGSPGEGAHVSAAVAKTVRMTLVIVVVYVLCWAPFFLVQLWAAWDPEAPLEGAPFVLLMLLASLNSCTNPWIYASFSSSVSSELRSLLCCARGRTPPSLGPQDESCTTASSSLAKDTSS
T2 sequence (P37288 whole entry): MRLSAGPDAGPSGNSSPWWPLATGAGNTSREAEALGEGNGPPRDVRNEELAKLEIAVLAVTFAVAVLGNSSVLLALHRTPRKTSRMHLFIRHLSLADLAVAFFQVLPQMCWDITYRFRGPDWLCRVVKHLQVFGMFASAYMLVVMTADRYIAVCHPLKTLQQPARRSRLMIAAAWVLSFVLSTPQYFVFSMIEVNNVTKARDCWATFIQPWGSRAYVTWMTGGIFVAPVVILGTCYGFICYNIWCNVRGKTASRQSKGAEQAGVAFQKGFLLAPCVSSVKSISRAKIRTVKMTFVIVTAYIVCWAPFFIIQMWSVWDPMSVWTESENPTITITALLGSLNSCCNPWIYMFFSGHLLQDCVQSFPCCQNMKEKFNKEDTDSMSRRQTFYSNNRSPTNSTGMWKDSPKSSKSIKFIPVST

In the case of `CC1(C)CN(C(=O)c2nc(Cn3nc(-c4ccc(Cl)cc4)n(C[C@H](O)C(F)(F)F)c3=O)nn2-c2ncccc2C(F)(F)F)CCO1` [Example 56, 5-(4-Chlorophenyl)-2-({5-(2,2-dimethylmorpholine-4-carbonyl)-1-[3-(trifluoromethyl)pyridin-2-yl]-1H-1,2,4-triazol-3-yl}methyl)-4-[(2S)-3,3,3-trifluoro-2-hydroxypropyl]-2,4-dihydro-3H-1,2,4-triazol-3-one], at human V2 receptor, the pIC50 is 6.63. On human V1a receptor, the pIC50 is 8.96 and the “ratio IC50 hV2/hV1a” value came out at 214.6.
For the compound `CC1(O)CCN(C(=O)c2nc(Cn3nc(-c4ccc(Cl)cc4)n(C[C@H](O)C(F)(F)F)c3=O)nn2-c2ncccc2C(F)(F)F)C1` (stereo partly drawn) [Example 57, 5-(4-Chlorophenyl)-2-({5-[(35)-3-hydroxy-3-methylpyrrolidine-1-carbonyl]-1-[3-(trifluoromethyl)pyridin-2-yl]-1H-1,2,4-triazol-3-yl}methyl)-4-[(2S)-3,3,3-trifluoro-2-hydroxypropyl]-2,4-dihydro-3H-1,2,4-triazol-3-one], the pIC50 at human V2 receptor is 6.36; on human V1a receptor, 8.56. Also, at human V1a receptor, the “ratio IC50 hV2/hV1a” value amounted to 160.0.
With `O=C(c1nc(Cn2nc(-c3ccc(Cl)cc3)n(C[C@H](O)C(F)(F)F)c2=O)nn1-c1ncccc1C(F)(F)F)N1CC(O)(C(F)(F)F)C1` [Example 58, 5-(4-Chlorophenyl)-2-({5-[3-hydroxy-3-(trifluoromethyl)azetidine-1-carbonyl]-1-[3-(trifluoromethyl)pyridin-2-yl]-1H-1,2,4-triazol-3-yl}methyl)-4-[(2S)-3,3,3-trifluoro-2-hydroxypropyl]-2,4-dihydro-3H-1,2,4-triazol-3-one], the pIC50 on human V2 receptor is 6.36; on human V1a receptor, 8.87. In addition, the “ratio IC50 hV2/hV1a” value on human V1a receptor worked out at 322.2.

The values are drawn from patent publication US11230540B2, “Substituted triazole derivatives and uses thereof” (Bayer Pharma Aktiengesellschaft, priority 2017, dated 2022).
